Assay results from a compilation of properties of binary mixtures (doi:10.1021/je401124t).

Test: xn = mol fraction of the nth substance listed
Conditions: 101 kPa

COP(=O)([O-])OC.Cn1cc[n+](C)c1 + CC(C)O
viscosity [mPa·s]
Conditions	x2 = 0	x2 = 0.0999	x2 = 0.2032	x2 = 0.301	x2 = 0.402	x2 = 0.5002	x2 = 0.6	x2 = 0.7009	x2 = 0.7997	x2 = 0.9013
293.15 K	–	–	254	173.1	–	67	38.35	21.3	11.44	5.77
298.15 K	291	253	–	129.9	75.3	–	31.53	–	9.87	5
303.15 K	210	184.2	136.2	99.8	61.1	–	26.2	15.37	8.59	4.361
308.15 K	155.6	138.2	105	78.4	49.7	35.62	22.05	–	7.54	–
313.15 K	–	–	–	–	40.99	29.78	18.74	11.54	6.64	3.359
318.15 K	92.8	82.8	–	51.5	33.95	–	16.13	–	5.89	2.969
323.15 K	74.2	66.4	54	42.88	28.66	–	14.03	8.94	5.25	–

COP(=O)([O-])OC.Cn1cc[n+](C)c1 + CCCO
viscosity [mPa·s]
Conditions	x2 = 0	x2 = 0.098	x2 = 0.1993	x2 = 0.3018	x2 = 0.4	x2 = 0.5002	x2 = 0.5996	x2 = 0.6995	x2 = 0.799	x2 = 0.8998
293.15 K	416	296	211	–	85.2	50.8	29.52	17.53	9.79	4.441
298.15 K	–	215	154.1	93	66.9	41.59	25.38	15.17	8.63	3.929
303.15 K	210	159	–	74.1	53.6	–	–	13.16	7.61	3.492
308.15 K	155.6	121.1	–	59.5	43.67	28.52	18.35	11.51	6.76	3.118
313.15 K	119.2	93.9	71.2	48.5	36.1	24.02	–	10.13	6.04	2.795
318.15 K	92.8	–	57.8	39.92	–	–	13.79	8.97	5.42	2.516
323.15 K	74.2	60.9	47.8	–	25.67	17.68	–	8	–	2.273

COP(=O)([O-])OC.Cn1cc[n+](C)c1 + CCO
viscosity [mPa·s]
Conditions	x2 = 0	x2 = 0.0999	x2 = 0.2028	x2 = 0.3009	x2 = 0.4074	x2 = 0.5028	x2 = 0.6	x2 = 0.6992	x2 = 0.7999	x2 = 0.9
293.15 K	416	339	246	134.3	77.7	–	–	13.76	–	–
298.15 K	291	238	182.5	98.7	–	30.76	–	11.97	5.6	2.824
303.15 K	210	–	138.5	78.5	48.7	25.78	18.08	10.5	–	2.567
308.15 K	155.6	130.7	106.8	62.9	39.62	–	15.59	–	4.509	2.341
313.15 K	119.2	100.8	84	51	32.73	18.94	13.59	8.27	4.077	2.143
318.15 K	–	79.1	67	41.98	27.44	16.42	11.88	7.41	–	1.97
323.15 K	74.2	–	54.4	35.06	23.3	14.35	10.51	6.68	3.378	–

COP(=O)([O-])OC.Cn1cc[n+](C)c1 + CO
viscosity [mPa·s]
Conditions	x2 = 0	x2 = 0.1054	x2 = 0.2009	x2 = 0.2977	x2 = 0.3984	x2 = 0.5028	x2 = 0.6018	x2 = 0.7027	x2 = 0.8002	x2 = 0.8998
293.15 K	416	278	174.8	111.5	68	36.25	–	10.21	4.9	–
298.15 K	–	201.1	121.9	–	–	29.9	17.07	9.02	4.419	1.776
303.15 K	210	149.7	–	67.9	43.95	–	14.7	8.01	4.006	1.642
308.15 K	155.6	114.3	–	54.4	36.27	–	12.81	7.16	3.65	1.523
313.15 K	119.2	89.4	60.5	44.4	30.38	18.06	11.25	6.44	3.336	1.416
318.15 K	92.8	–	49.2	36.86	25.8	15.62	9.96	–	3.061	1.322
323.15 K	74.2	58.3	40.66	–	22.16	–	8.88	5.3	2.82	1.243

CC(C)O + COP(=O)([O-])OC.Cn1cc[n+](C)c1
x1 = 1
Conditions	viscosity [mPa·s]
293.15 K	2.439
298.15 K	2.134
303.15 K	1.845
308.15 K	1.603
313.15 K	1.4
318.15 K	1.228
323.15 K	1.083

CCCO + COP(=O)([O-])OC.Cn1cc[n+](C)c1
x1 = 1
Conditions	viscosity [mPa·s]
293.15 K	2.188
298.15 K	1.974
303.15 K	1.761
308.15 K	1.575
313.15 K	1.416
318.15 K	1.273
323.15 K	1.15

CCO + COP(=O)([O-])OC.Cn1cc[n+](C)c1
x1 = 1
Conditions	viscosity [mPa·s]
293.15 K	1.192
298.15 K	1.085
303.15 K	0.99
308.15 K	0.906
313.15 K	0.831
318.15 K	0.764
323.15 K	0.704

CO + COP(=O)([O-])OC.Cn1cc[n+](C)c1
x1 = 1
Conditions	viscosity [mPa·s]
293.15 K	0.586
298.15 K	0.552
308.15 K	0.491
313.15 K	0.465
323.15 K	0.418
